“Also recorded” adds a separate entry of the source.
Assays:
[1] = tested on: male BALB/c mice; assay: Liver injury in mice (CCl4), specificity of plasma KIM-1 to renal injury; format: in vivo, mouse; settings: 48 hours
Experimental: As controls, male BALB/c mice were injected intraperitoneally once with 0.5 ml/kg of 10% CC14 in vegetable oil (n=5) or vegetable oil alone (vehicle, n=5), as previously de-scribed.^21 Forty-eight hours after CCl4 administration, mice were euthanized and urine, plasma, and tissue samples were collected and analyzed.
(§1) Microbead-based assays for rodent and human plasma and serum KIM-1 were developed, and extensive validation of the assays were performed using previously described approaches.^24 Urinary KIM-1 in rodents and humans was measured using microbead based assays as described previously.5,7,25,26 Capture antibodies (MAB 1817 for mouse, AF1750 for human [R&D Systems]), MARKE^25 antibody for rat (developed at Brigham and Women's Hospital) were conjugated with COOH polystyrene beads (Bio-Rad) with an amine coupling kit (Bio-Rad) using N-hydroxysuccinamide-1-ethyl-3-(3-dimethylaminopropyl) carbodiimide chemistry according to the manufacturer's protocol. Approximately 6000 beads in […] of sample diluent buffer (0.1M HEPES, 0.1M NaCl, 0.1% Tween-20, and 1% BSA; pH, 7.4; filter sterilized) were incubated with […] of sample or recombinant KIM-1 protein (1817-TM-050-CF for mice, 1750-TM for humans [R&D systems]), and KIM-FC for rats [developed at Brigham and Women's Hospital]) for 45 minutes. After incubation, beads were washed three times with PBS with Tween and incubated with biotinylated anti-KIM-1 detection antibody (BAF 1817 for mice, BAF 1750 for humans [R&D Systems]) and MARKE-2 for rats [developed at Brigham and Women's Hospital]) for 30 minutes. Beads were washed again with PBS with Tween and incubated for 15 minutes with the streptavidin-phycoerythrin solution (Invitrogen). The signal from the fluorochrome, which is directly proportional to the amount of antigen bound at the microbead surface, is captured using the Bio-Plex system (Bio-Rad). Data were interpreted using a five parametric logistic regression analysis.
To evaluate the specificity of plasma KIM-1 to renal injury, mice were treated with carbon tetrachloride (CCl4), a known hepatotoxicant. […] Thus, plasma KIM-1 was not affected by liver injury.

[2] = tested on: Male Sprague-Dawley rats; assay: Gentamicin-induced nephrotoxicity in rats; format: in vivo, rat; settings: for kidney histopathologic analysis: kidney tissue collected day 11
Experimental: Rats were provided with free access to food and water and subjected to a 12-hour light and dark cycle. Rats were euthanized on day 11, and urine, plasma, and tissue samples were collected and analyzed. Tissue samples were fixed in 10% neutral buffered formalin or snap frozen. For histologic assessment, […] paraffin sections were prepared and stained with hematoxylin and eosin. The rat studies were undertaken in accordance with criteria outlined in a license granted under the Animals (Scientific Procedures) Act 1986 and approved by the University of Liverpool Animal Ethics Committee.
as §1
The inventors also investigated whether plasma KIM-1 levels can serve as a biomarker in gentamicin-induced kidney injury in a different rodent species, rats. […] Plasma, urine, and kidney tissue were collected on day 11. The extent of kidney damage was assessed by histo-pathologic analysis and changes in plasma creatinine. […] The lumens of the tubules were filled with casts and dead cells. […] Thus, plasma KIM-1 is a sensitive marker of ischemia and toxin-induced injury to the proximal tubule in mice and rats.

[3] = single dose of 10% CCl4, 0.5 ml/kg

Compound | liver histopathology ([1]; single dose of 10% CCl4, 0.5 ml/kg intraperitoneally) | kidney morphology (histopathology) [1, 3] | plasma KIM-1 [1, 3] | plasma creatinine [1, 3] | urinary KIM-1 [1, 3] | kidney histopathologic analysis ([2]; 50 mg/kg gentamicin per day intraperitoneally for 10 days) | urinary KIM-1 levels (normalized to urine creatinine) ([2]; 10 daily doses of 50 or 200 mg/kg, day 11) | kidney sections, hematoxylin and eosin staining ([2]; 50 or 200 mg/kg daily for 10 days, euthanized day 11 (FIG. 1H)) | kidney histopathologic analysis ([2]; daily doses of 200 mg/kg gentamicin for 10 days)
ClC(Cl)(Cl)Cl [CCl4, carbon tetrachloride] | liver necrosis | No histopathologic changes | no significant alterations; also recorded: not changed | no significant alterations | no significant alterations | – | – | – | –
gentamicin | – | – | – | – | – | brush border loss, focal tubular necrosis, and interstitial inflammation | significantly increased | loss of brush border, necrosis, and sloughing of cells into the tubular lumen | extensive diffuse cell necrosis
